Target: T1, IRAK4 (Homo sapiens, UniProt Q9NWZ3)
T1 sequence (Q9NWZ3 1-460): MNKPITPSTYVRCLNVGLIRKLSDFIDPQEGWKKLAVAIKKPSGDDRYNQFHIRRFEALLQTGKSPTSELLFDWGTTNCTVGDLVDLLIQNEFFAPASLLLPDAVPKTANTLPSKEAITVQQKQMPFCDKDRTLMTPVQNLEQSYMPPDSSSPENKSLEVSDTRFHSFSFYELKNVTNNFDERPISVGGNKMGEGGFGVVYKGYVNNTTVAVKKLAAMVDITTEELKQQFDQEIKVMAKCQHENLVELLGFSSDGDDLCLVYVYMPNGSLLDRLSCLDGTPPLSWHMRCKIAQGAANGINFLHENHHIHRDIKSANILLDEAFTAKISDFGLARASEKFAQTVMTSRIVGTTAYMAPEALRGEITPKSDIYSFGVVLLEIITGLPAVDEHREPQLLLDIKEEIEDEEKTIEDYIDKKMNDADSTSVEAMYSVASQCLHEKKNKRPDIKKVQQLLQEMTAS
Test: THP-1 degradation assay (western blot, % IRAK4 degraded after 24 hours)
Format: cell-based
Parameters: endogenous in cells
Settings: THP-1 cells
Protocol: Compounds were reconstituted in DMSO to make stock solutions at concentration of 60 mM. THP-1 and OCI-LY10 cells were maintained in RPMI-1640 medium containing 10% FBS, 0.5 μM 2-ME or 20% FBS, 55 μM 2-ME, and 1% L-Glutamine respectively.
Cells were seeded into 6-well plates with 5e6 cells per well. 200 μL of diluted compounds were added to cells to the final concentration of 0.003-10 μM. After 4 or 24 hour-incubation at 37° C., cells were collected into 2 mL Eppendorf tubes and centrifuged at 1,000 rpm for 5 min. The cell pellets were washed with 1×DPBS once and resuspended in 60 μL lysis buffer. The cells were lysed on ice for 10 min, then centrifuged at 14,000 rpm for 10 min at 4° C. and the supernatants were collected for western blots. For THP-1 cells, the lysis buffer contained 40 mM pH 7.4 HEPES, 140 mM NaCl, 2.5 mM EDTA, 1% NP-40, 0.1% SDS, and protease inhibitor cocktail (Roche, Cat. No. 05892791001). For OCI-LY10 cells, RIPAbuffer (Thermo Fisher, 89900) with Halt Protease and Phosphatase Inhibitor Cocktail (Thermo Fisher, 78446) was applied.
The protein concentration of cell lysates was quantified with Pierce™ BCA Protein Assay Kit (Pierce, 23227). Albumin standards at different concentrations were prepared, involving 2,000 ug/mL, 1,500 ug/mL, 1,000 ug/mL, 750 ug/mL, 500 ug/mL, 250 ug/mL, 125 ug/mL, and 25 ug/mL. BCA working reagents were prepared by mixing BCA reagent A with reagent B in 50:1 ratio. 200 μL of the BCA working reagents were added to 25 μL of BCA standard or cell lysates in microplate, and mixed thoroughly on a plate shaker for 30 seconds. After incubation at 37° C. for 30 min, the absorbance of samples at 562 nm were measured with EnVision Plate Reader.
Protein lysates were prepared in NuPAGE™ LDS sample buffer and NuPAGE™ sample reducing agent, and incubated at 95° C. for 5 min. For western blots, 20-25 μg of total proteins were resolved in 4-12% Bis-Tris gels (Introgen, WG1403A) or 10% Bis-Tris Midi gels (Invitrogen, WG1202BOX) running with 1×MOPS SDS running buffer (Invitrogen, NP0001) or 1×MES SDS running buffer (Invitrogen, NP0002). The proteins were transferred to low fluorescence PVDF membranes using the Trans-Blot Turbo Transfer System. Membranes were then blocked in Odyssey blocking buffer at RT for 1 h followed by primary incubation at 4° C. overnight. The primary antibodies were IRAK1 rabbit monoclonal antibody (CST, #4504S, 1:500), IRAK3 rabbit polyclonal antibody (CST, #4369, 1:500), IRAK4 rabbit polyclonal antibody (CST, #4363S, 1:1,000), MyD88 rabbit monoclonal antibody (Abcam, Ab133739, 1:2,000), j3-actin mouse monoclonal antibody (Sigma, A5441, 10,000), and Gapdh mouse monoclonal antibody (Millipore, MAB374, 1:5,000). Membranes were washed three times with 1×TBST, and then incubated with IR Dye 800 CW Goat anti-rabbit (Licor, #926-32211) and IR Dye 700 CW Goat anti-mouse (Licor, #926-68070) secondary antibodies in 1:10,000 dilution at RT for 1 h. The western blot images were obtained using Odyssey Imaging System.
THP-1 results at 24 hours. The letter codes indicate the percentage of IRAK4 degraded after 24 hours: A (>50% degradation), B (>20-50% degradation) and C (<20% degradation)

| Structure (SMILES) | THP-1 24 h % IRAK4 Degradation |
| --- | --- |
| O=C(COc1cccc2c1C(=O)N(C1CCC(=O)NC1=O)C2=O)NCCCCCOCCOCCOCCCCCNC(=O)[C@H]1CC[C@H](NC(=O)c2cnc(Nc3ccc4cnccc4n3)cc2NC2CC2)CC1 (stereo partly drawn) [I-1, 6-((1,6-naphthyridin-2-yl)amino)-4-(cyclopropylamino)-N-((1R,4R)-4-((1-((2-(2,6-dioxopiperidin-3-yl)-1,3-dioxoisoindolin-4-yl)oxy)-2-oxo-9,12,15-trioxa-3-azaicosan-20-yl)carbamoyl)cyclohexyl)nicotinamide] | B (>20-50% degradation) |
| O=C(COc1cccc2c1C(=O)N(C1CCC(=O)NC1=O)C2=O)NCCOCCOCCOCCNC(=O)[C@H]1CC[C@H](NC(=O)c2cnc(Nc3ccc4cnccc4n3)cc2NC2CC2)CC1 (some centres unmarked) [I-2] | C (<20% degradation) |
| O=C(COc1cccc2c1C(=O)N(C1CCC(=O)NC1=O)C2=O)NCCCCCOCCCCCNC(=O)[C@H]1CC[C@H](NC(=O)c2cnc(Nc3ccc4cnccc4n3)cc2NC2CC2)CC1 (some centres unmarked) [I-3] | C (<20% degradation) |
| O=C(COc1cccc2c1C(=O)N(C1CCC(=O)NC1=O)C2=O)NCCCCCNC(=O)[C@H]1CC[C@H](NC(=O)c2cnc(Nc3ccc4cnccc4n3)cc2NC2CC2)CC1 (some centres unmarked) [I-4] | A (>50% degradation) |
| O=C(COc1cccc2c1C(=O)N(C1CCC(=O)NC1=O)C2=O)NCCCCCOCCOCCCCCNC(=O)[C@H]1CC[C@H](NC(=O)c2cnc(Nc3ccc4cnccc4n3)cc2NC2CC2)CC1 (some centres unmarked) [I-5] | B (>20-50% degradation) |
| O=C(COc1cccc2c1C(=O)N(C1CCC(=O)NC1=O)C2=O)NCCOCCNC(=O)[C@H]1CC[C@H](NC(=O)c2cnc(Nc3ccc4cnccc4n3)cc2NC2CC2)CC1 (some centres unmarked) [I-6] | B (>20-50% degradation) |
| O=C(COc1cccc2c1C(=O)N(C1CCC(=O)NC1=O)C2=O)NCCCNC(=O)[C@H]1CC[C@H](NC(=O)c2cnc(Nc3ccc4cnccc4n3)cc2NC2CC2)CC1 (some centres unmarked) [I-7] | B (>20-50% degradation) |
| O=C(COc1cccc2c1C(=O)N(C1CCC(=O)NC1=O)C2=O)NCCNC(=O)[C@H]1CC[C@H](NC(=O)c2cnc(Nc3ccc4cnccc4n3)cc2NC2CC2)CC1 (some centres unmarked) [I-8] | C (<20% degradation) |
| Cc1ncsc1-c1ccc(CNC(=O)[C@@H]2C[C@@H](O)CN2C(=O)[C@H](NC(=O)CCCCCCNC(=O)[C@H]2CC[C@H](NC(=O)c3cnc(Nc4ccc5cnccc5n4)cc3NC3CC3)CC2)C(C)(C)C)cc1 [I-10, 6-((1,6-naphthyridin-2-yl)amino)-4-(cyclopropylamino)-N-((1S,4r)-4-((7-(((S)-1-((2S,4R)-4-hydroxy-2-((4-(4-methylthiazol-5-yl)benzyl)carbamoyl)-pyrrolidin-1-yl)-3,3-dimethyl-1-oxobutan-2-yl)amino)-7-oxoheptyl)carbamoyl)cyclohexyl)-nicotinamide] | C (<20% degradation) |
| O=C1CCC(N2C(=O)c3cccc(NCCOCCOCCOCCOCCNC(=O)[C@H]4CC[C@H](NC(=O)c5cnc(Nc6ccc7cnccc7n6)cc5NC5CC5)CC4)c3C2=O)C(=O)N1 (some centres unmarked) [I-11] | C (<20% degradation) |
| Cc1ncsc1-c1ccc(CNC(=O)[C@@H]2C[C@@H](O)CN2C(=O)[C@H](NC(=O)CCCCCCCCCCCNC(=O)[C@H]2CC[C@H](NC(=O)c3cnc(Nc4ccc5cnccc5n4)cc3NC3CC3)CC2)C(C)(C)C)cc1 [I-12] | C (<20% degradation) |
| Cc1ncsc1-c1ccc(CNC(=O)[C@@H]2C[C@@H](O)CN2C(=O)C(NC(=O)COCCOCCOCCOCCNC(=O)[C@H]2CC[C@H](NC(=O)c3cnc(Nc4ccc5cnccc5n4)cc3NC3CC3)CC2)C(C)(C)C)cc1 (some centres unmarked) [I-13] | C (<20% degradation) |
| Cc1ncsc1-c1ccc(CNC(=O)[C@@H]2C[C@@H](O)CN2C(=O)[C@H](NC(=O)CCCCCOCCCCCCCNC(=O)[C@H]2CC[C@H](NC(=O)c3cnc(Nc4ccc5cnccc5n4)cc3NC3CC3)CC2)C(C)(C)C)cc1 [I-14] | C (<20% degradation) |
| Cc1ncsc1-c1ccc(CNC(=O)[C@@H]2C[C@@H](O)CN2C(=O)[C@H](NC(=O)CCCCNC(=O)[C@H]2CC[C@H](NC(=O)c3cnc(Nc4ccc5cnccc5n4)cc3NC3CC3)CC2)C(C)(C)C)cc1 [I-15] | A (>50% degradation) |
| O=C(COc1cccc2c1C(=O)N(C1CCC(=O)NC1=O)C2=O)NCCOCCOCCNC(=O)[C@H]1C[C@H](NC(=O)c2cnc(Nc3ccc4cnccc4n3)cc2NC2CC2)C1 (some centres unmarked) [I-16] | C (<20% degradation) |
| O=C(CN1CCC(NC(=O)c2cnc(Nc3ccc4cnccc4n3)cc2NC2CC2)CC1)NCCOCCOCCNc1cccc2c1C(=O)N(C1CCC(=O)NC1=O)C2=O (centres unmarked) [I-19, 6-((1,6-naphthyridin-2-yl)amino)-4-(cyclopropylamino)-N-(1-(2-((2-(2-(2-((2-(2,6-dioxopiperidin-3-yl)-1,3-dioxoisoindolin-4-yl)amino)ethoxy)ethoxy)ethyl)amino)-2-oxoethyl)piperidin-4-yl)nicotinamide] | C (<20% degradation) |
| O=C1CCC(N2C(=O)c3cccc(NCCOCCNC(=O)[C@H]4CC[C@H](NC(=O)c5cnc(Nc6ccc7cnccc7n6)cc5NC5CC5)CC4)c3C2=O)C(=O)N1 (some centres unmarked) [I-25, 6-((1,6-naphthyridin-2-yl)amino)-4-(cyclopropylamino)-N-((1r,4r)-4-((2-(2-((2-(2,6-dioxopiperidin-3-yl)-1,3-dioxoisoindolin-4-yl)amino)ethoxy)ethyl)carbamoyl)cyclohexyl)nicotinamide] | B (>20-50% degradation) |
| O=C1CCC(N2C(=O)c3cccc(NCCCOCCCNC(=O)[C@H]4CC[C@H](NC(=O)c5cnc(Nc6ccc7cnccc7n6)cc5NC5CC5)CC4)c3C2=O)C(=O)N1 (stereo partly drawn) [I-30, 6-((1,6-naphthyridin-2-yl)amino)-4-(cyclopropylamino)-N-((1R,4R)-4-((3-(3-((2-(2,6-dioxopiperidin-3-yl)-1,3-dioxoisoindolin-4-yl)amino)propoxy)propyl)carbamoyl)cyclohexyl)nicotinamide] | C (<20% degradation) |
| CN(CCOCCOCCNc1cccc2c1C(=O)N(C1CCC(=O)NC1=O)C2=O)C(=O)[C@H]1CC[C@H](NC(=O)c2cnc(Nc3ccc4cnccc4n3)cc2NC2CC2)CC1 (stereo partly drawn) [I-40, 6-((1,6-naphthyridin-2-yl)amino)-4-(cyclopropylamino)-N-((1R,4R)-4-((2-(2-(2-((2-(2,6-dioxopiperidin-3-yl)-1,3-dioxoisoindolin-4-yl)amino)ethoxy)ethoxy)ethyl)(methyl)carbamoyl)cyclohexyl)nicotinamide] | C (<20% degradation) |
| O=C1CCC(N2C(=O)c3cccc(NCCOCCOCCOCC(=O)N4CCC(NC(=O)c5cnc(Nc6ccc7cnccc7n6)cc5NC5CC5)CC4)c3C2=O)C(=O)N1 (centres unmarked) [I-43, 6-((1,6-naphthyridin-2-yl)amino)-4-(cyclopropylamino)-N-(1-(2-(2-(2-(2-((2-(2,6-dioxopiperidin-3-yl)-1,3-dioxoisoindolin-4-yl)amino)ethoxy)ethoxy)ethoxy)acetyl)piperidin-4-yl)nicotinamide] | C (<20% degradation) |

Source: patent publication US10874743B2, “IRAK degraders and uses thereof” (Kymera Therapeutics, Inc., priority 2017, dated 2020)
